Source: PubChem BioAssay AID296 (DTP/NCI, 2004)
Several values for one entry are separate records, joined by “and”; a condition that tells them apart may be missing. Equal values may be shown once. Results filed as inconclusive are left out.

System: MX-1 breast xenograft, nude mice, tumor weight T/C
Assay: NCI In Vivo Anticancer Drug Screen. Data for tumor model Human Mammary Carcinoma MX-1 Xenograft (intrarenal inoculation) in NU/NU Swiss (nude) mice
Conditions: endpoint: mean tumor weight change, higher = larger tumour
Method in brief: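 Tumor-bearing mice were treated with test compound alongside a vehicle-treated control group. Survival or tumor size was measured, and activity is expressed as the treated-group value divided by the control-group value.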

[1] = dose: 300.0 mg/kg/injection, schedule: Q04DX003 (sc), vehicle: Klucel (hydroxypropylcellulose) (HPC)
[2] = dose: 600.0 mg/kg/injection, schedule: Q04DX003 (sc), vehicle: Klucel (hydroxypropylcellulose) (HPC)
[3] = dose: 1200.0 mg/kg/injection, schedule: Q04DX003 (sc), vehicle: Klucel (hydroxypropylcellulose) (HPC)
[4] = dose: 2400.0 mg/kg/injection, schedule: Q04DX003 (sc), vehicle: Klucel (hydroxypropylcellulose) (HPC)

CC1=NN(c2cccc(S(=O)(=O)O)c2)C(=O)C1N=Nc1cc(Cl)cc(S(=O)(=O)O)c1O.CC1=NN(c2cccc(S(=O)(=O)O)c2)C(=O)C1N=Nc1cc(Cl)cc(S(=O)(=O)O)c1O.[Cr] (stereo not drawn) was tested, and the T/C (dose: 150.0 mg/kg/injection, schedule: Q04DX003 (ip), vehicle: saline) was 151 % of control, the T/C (dose: 300.0 mg/kg/injection, schedule: Q04DX003 (ip), vehicle: saline) was 94 % of control and the T/C (dose: 600.0 mg/kg/injection, schedule: Q04DX003 (ip), vehicle: saline) was 50 % of control.
With CN(C)C(=O)SC1=C(c2c(Cl)cccc2Cl)C(=O)c2ccccc21 the T/C [1] was 76 % of control, the T/C [2] was 65 % of control and the T/C [3] was 57 % of control. The T/C [4] was 67 % of control.
For O=C1C(O)=C(c2ccccc2)C(=O)C(O)=C1c1ccccc1, the T/C (dose: 75.0 mg/kg/injection, schedule: Q04DX003 (sc), vehicle: saline) was 118 % of control, the T/C (dose: 150.0 mg/kg/injection, schedule: Q04DX003 (sc), vehicle: saline) was 74 % of control and the T/C (dose: 300.0 mg/kg/injection, schedule: Q04DX003 (sc), vehicle: saline) was 61 % of control.
CO[C@H]1C[C@](C)(O)Cc2cc3c(c(O)c21)C(=O)c1c(O)cc2c(c1C3=O)O[C@@H]1O[C@@]2(C)[C@H](O)[C@@H](N(C)C)[C@@H]1O was tested, and the T/C (dose: 3.13 mg/kg/injection, schedule: Q01DX010 (sc), vehicle: other) was 93 % of control, the T/C (dose: 6.25 mg/kg/injection, schedule: Q01DX010 (sc), vehicle: other) was 82 % of control and the T/C (dose: 12.5 mg/kg/injection, schedule: Q01DX010 (sc), vehicle: other) was 43 % of control.
C[C@@]1(CO)[C@H](O)CC[C@@]2(C)[C@H]1CC[C@H]1C[C@@H]3C[C@@]12CC[C@@]3(O)COC(=O)CN was tested, and the T/C (dose: 125.0 micrograms/kg/injection, schedule: Q04DX003 (sc), vehicle: saline + alcohol) was 102 % of control, the T/C (dose: 250.0 micrograms/kg/injection, schedule: Q04DX003 (sc), vehicle: saline + alcohol) was 34 % of control and the T/C (dose: 500.0 micrograms/kg/injection, schedule: Q04DX003 (sc), vehicle: saline + alcohol) was 55 % of control. For the same compound, the T/C (dose: 1000.0 micrograms/kg/injection, schedule: Q04DX003 (sc), vehicle: saline + alcohol) was 70 % of control.
COc1cc2c3c(cccc3c1)C(=O)N(CCN(C)C)C2=O was tested, and the T/C (dose: 300.0 mg/kg/injection, schedule: Q04DX003 (sc), vehicle: saline with Tween-80) was 100 % of control and the T/C (dose: 600.0 mg/kg/injection, schedule: Q04DX003 (sc), vehicle: saline with Tween-80) was 103 % of control.
Cn1/c2cc/c1=C(\c1ccc(S(=O)(=O)O)cc1)c1ccc([n-]1)/C(c1ccc(S(=O)(=O)O)cc1)=c1/cc/c([nH]1)=C(\c1ccc(S(=O)(=O)O)cc1)c1ccc([n-]1)/C=2c1ccc(S(=O)(=O)O)cc1.O.O=S(=O)(O)C(F)(F)F.[Cu+2] was tested, and the T/C (dose: 150.0 mg/kg/injection, schedule: Q04DX003 (sc), vehicle: Klucel (hydroxypropylcellulose) (HPC)) was 54 % of control and the T/C [2] was 94 % of control.
In the case of CN(C)CCN1C(=O)c2cccc3cc([N+](=O)[O-])cc(c23)C1=O, the T/C (dose: 9.0 mg/kg/injection, schedule: Q04DX003 (sc), vehicle: saline with Tween-80) is reported as 52 % of control, the T/C (dose: 18.0 mg/kg/injection, schedule: Q04DX003 (sc), vehicle: saline with Tween-80) is reported as 43 % of control and the T/C (dose: 36.0 mg/kg/injection, schedule: Q04DX003 (sc), vehicle: saline with Tween-80) is reported as 55 % of control.
In the case of O=c1n(CC2CO2)c(=O)n(CC2CO2)n1CC1CO1 (stereo not drawn), the T/C (dose: 9.38 mg/kg/injection, schedule: Q04DX003 (sc), vehicle: saline) is reported as 57 % of control, the T/C (dose: 18.7 mg/kg/injection, schedule: Q04DX003 (sc), vehicle: saline) is reported as 4 % of control and the T/C (dose: 18.75 mg/kg/injection, schedule: Q04DX003 (sc), vehicle: saline) is reported as 2 % of control. The T/C (dose: 29.0 mg/kg/injection, schedule: Q04DX003 (sc), vehicle: saline) was -11 % of control and the T/C (dose: 37.5 mg/kg/injection, schedule: Q04DX003 (sc), vehicle: saline) was -83 % of control and -73 % of control.
In the case of C=CS(=O)(=O)c1ccccc1, the T/C (dose: 50.0 mg/kg/injection, schedule: Q01DX010 (sc), vehicle: saline) is reported as 91 % of control and the T/C (dose: 100.0 mg/kg/injection, schedule: Q01DX010 (sc), vehicle: saline) is reported as 81 % of control.
In the case of CCCC(=O)Oc1ccc(/C=N/NC(N)=S)nc1, the T/C (dose: 50.0 mg/kg/injection, schedule: Q01DX010 (sc), vehicle: saline with Tween-80) is reported as 101 % of control and the T/C (dose: 200.0 mg/kg/injection, schedule: Q01DX010 (sc), vehicle: saline with Tween-80) is reported as 113 % of control.
In the case of Cc1ccc(C2NC(=S)N3C(c4ccc(C)cc4)NC(=S)N23)cc1 (stereo not drawn), the T/C [1] is reported as 91 % of control, the T/C [2] is reported as 112 % of control and the T/C [4] is reported as 89 % of control.
In the case of C[C@]12CCC(=O)C=C1CC[C@@H]1[C@@H]2C(=O)C[C@@]2(C)[C@H]1CC[C@]2(O)C(=O)CO, the T/C [1] is reported as 108 % of control and the T/C [2] is reported as 45 % of control.
With COc1cc([C@@H]2c3cc4c(c(O)c3C[C@H]3COC(=O)[C@@H]32)OCO4)cc(OC)c1O the T/C (dose: 0.5 mg/kg/injection, schedule: Q01DX010 (sc), vehicle: saline) was 121 % of control, the T/C (dose: 1.0 mg/kg/injection, schedule: Q01DX010 (sc), vehicle: saline) was 114 % of control and the T/C (dose: 2.0 mg/kg/injection, schedule: Q01DX010 (sc), vehicle: saline) was 87 % of control. The T/C (dose: 3.13 mg/kg/injection, schedule: Q01DX010 (sc), vehicle: saline) was 104 % of control, the T/C (dose: 4.0 mg/kg/injection, schedule: Q01DX010 (sc), vehicle: saline) was 98 % of control and the T/C (dose: 6.25 mg/kg/injection, schedule: Q01DX010 (sc), vehicle: saline) was 34 % of control.
In the case of NC(=O)c1cn(C2OC(CO)C(O)C2O)c2ncnc(N)c12 (stereo not drawn), the T/C (dose: 1.5 mg/kg/injection, schedule: Q04DX003 (sc), vehicle: saline) is reported as 77 % of control, the T/C (dose: 3.0 mg/kg/injection, schedule: Q04DX003 (sc), vehicle: saline) is reported as 61 % of control and the T/C (dose: 6.0 mg/kg/injection, schedule: Q04DX003 (sc), vehicle: saline) is reported as 40 % of control.
For C(=N/NC1=NCCN1)/c1c2ccccc2c(/C=N\NC2=NCCN2)c2ccccc12, the T/C (dose: 75.0 mg/kg/injection, schedule: Q04DX003 (sc), vehicle: suspension in saline) was 11 % of control and 25 % of control and the T/C (dose: 150.0 mg/kg/injection, schedule: Q04DX003 (sc), vehicle: suspension in saline) was 17 % of control and 18 % of control.
For CC(=O)c1cccc(NC2C(N)C(NC(=O)N(C)C)(C(C)O)C(C)(O)C2(O)COC(=O)c2c(C)cccc2O)c1 (stereo not drawn), the T/C (dose: 6.25 mg/kg/injection, schedule: Q04DX003 (ip), vehicle: suspension in saline) was 62 % of control, the T/C (dose: 12.5 mg/kg/injection, schedule: Q04DX003 (ip), vehicle: suspension in saline) was 85 % of control and the T/C (dose: 25.0 mg/kg/injection, schedule: Q04DX003 (ip), vehicle: suspension in saline) was 34 % of control.
In the case of CCC(C)Nc1ccc(N)cc1 (stereo not drawn), the T/C (dose: 4.5 mg/kg/injection, schedule: Q04DX003 (sc), vehicle: Klucel (hydroxypropylcellulose) (HPC)) is reported as 50 % of control and the T/C (dose: 18.0 mg/kg/injection, schedule: Q04DX003 (sc), vehicle: Klucel (hydroxypropylcellulose) (HPC)) is reported as 76 % of control.
With c1ccc2c(NCCCCCCCCNc3c4ccccc4nc4ccccc34)c3ccccc3nc2c1 the T/C (dose: 10.0 mg/kg/injection, schedule: Q01DX010 (sc), vehicle: Klucel (hydroxypropylcellulose) (HPC)) was 93 % of control, the T/C (dose: 20.0 mg/kg/injection, schedule: Q01DX010 (sc), vehicle: Klucel (hydroxypropylcellulose) (HPC)) was 16 % of control and the T/C (dose: 40.0 mg/kg/injection, schedule: Q01DX010 (sc), vehicle: Klucel (hydroxypropylcellulose) (HPC)) was 93 % of control. For the same compound, the T/C (dose: 80.0 mg/kg/injection, schedule: Q01DX010 (sc), vehicle: Klucel (hydroxypropylcellulose) (HPC)) was 58 % of control.
For CC(=O)Oc1c[nH]c(=O)[nH]c1=O, the T/C (dose: 100.0 mg/kg/injection, schedule: Q04DX003 (sc), vehicle: distilled water + Tween-80) was 117 % of control, the T/C (dose: 400.0 mg/kg/injection, schedule: Q04DX003 (sc), vehicle: distilled water + Tween-80) was 97 % of control and the T/C (dose: 800.0 mg/kg/injection, schedule: Q04DX003 (sc), vehicle: distilled water + Tween-80) was 95 % of control. The T/C (dose: 1600.0 mg/kg/injection, schedule: Q04DX003 (sc), vehicle: distilled water + Tween-80) was 58 % of control.
With CSc1ncc2ncn(C3OC(CO)C(O)C3O)c2n1 (stereo not drawn) the T/C [1] was 56 % of control, the T/C [2] was 59 % of control and the T/C [3] was 37 % of control. For the same compound, the T/C [4] was 68 % of control.
NC(=O)SCC(N)C(=O)O (stereo not drawn) was tested, and the T/C (dose: 225.0 mg/kg/injection, schedule: Q04DX003 (sc), vehicle: suspension in saline) was 73 % of control, the T/C (dose: 400.0 mg/kg/injection, schedule: Q04DX003 (sc), vehicle: suspension in saline) was 62 % of control and the T/C (dose: 450.0 mg/kg/injection, schedule: Q04DX003 (sc), vehicle: suspension in saline) was 49 % of control. The T/C (dose: 600.0 mg/kg/injection, schedule: Q04DX003 (sc), vehicle: suspension in saline) was 57 % of control.
For CN(C)/N=N/c1nc[nH]c1C(N)=O, the T/C (dose: 100.0 mg/kg/injection, schedule: Q01DX010 (sc), vehicle: Klucel (hydroxypropylcellulose) (HPC)) was 93 % of control, the T/C (dose: 200.0 mg/kg/injection, schedule: Q01DX010 (sc), vehicle: Klucel (hydroxypropylcellulose) (HPC)) was 48 % of control and the T/C (dose: 400.0 mg/kg/injection, schedule: Q01DX010 (sc), vehicle: Klucel (hydroxypropylcellulose) (HPC)) was 14 % of control.
